Test results as given in patent US9945862B2, “Biomarkers for predicting and assessing responsiveness of thyroid and kidney cancer subjects to lenvatinib compounds” (Eisai R&D Management Co., Ltd., priority 2011, dated 2018).

Tests used:
[1] = system: differentiated thyroid cancer patients; experiment: Tumor shrinkage (percent change of sum of diameters of target lesions) in E7080-treated DTC patients; assay type: in vivo, human
Experimental: The period during which a patient takes E7080 was artificially divided into different Cycles for ease of evaluation and tracking. Patients received E7080 at a dose of 24 mg oral once daily in 28 day cycles. For analysis purposes, assessments of clinical outcomes were performed at the time of the 9 month and at 14 month minimum follow-up. For the E7080 Thyroid Cancer trial, each Cycle is 28 days (4 weeks) so Day 1-28 is cycle 1; Day 29 is Day 1 of Cycle 2; and Day 57 is Day 1 of Cycle 3. Blood samples were collected for pharmacokinetic (PK) analysis on Cycle 1 Days 1 and 8, Cycle 2 Day 1, and Cycle 3 Day 1. A total of 9 samples per patient were collected as follows: Cycle 1 Day 1: immediately prior to the dose of E7080, and at 0.5 and 2 hours following the first dose of E7080 (post-dose); Cycle 1 Day 8: immediately prior to the dose of E7080; Cycle 2 Day 1: immediately prior to the dose of E7080, 0.5 and 2 hours post-dose; Cycle 3 Day 1: immediately prior to the dose of E7080 and 2 hours post-dose. For analysis of progression free survival, PK parameter was used as a covariate in Cox proportional hazards model.
“Tumor shrinkage” (TS) means percent change of sum of diameters of target lesions, taking as reference the baseline sum diameters.
Also changes in thyroglobulin levels were associated with tumor shrinkage after completion of cycle 2 (56 days after treatment) (Speaman's rank correlation test, Table 8, middle).
Next, the factors associated with tumor shrinkage were investigated (Pearson's correlation coefficient test, Table 11).

thyroglobulin = experiment: Serum thyroglobulin, chemiluminescent immunometric assay (IMMULITE 2000), pre- and post-treatment with E7080; assay type: in vivo, human
Experimental: The serum for the thyroglobulin assays was collected within 72 hours prior to Day 1 of all cycles. 24 mg of E7080 was administered orally, daily continuously in 28-day cycles. Serum samples from 58 patients were used for thyroglobulin measurements. 6 mL of blood was drawn into red top tubes and let to clot at room temperature for at least 30 min. Within 60 minutes of sample collection, the tubes were centrifuged for 15 minutes at 20-25° C. at 1000×g. The supernatant was drawn without disturbing the pellet, put into sample tubes with serum filter and shipped frozen to the central lab for testing on the day of collection. The level of thyroglobulin was detected by a solid-phase, chemiluminescent immunometric assay (IMMULITE 2000 Thyroglobulin Assay System, Siemens) following standard operating procedure. In brief, serum thyroglobulin was captured by beads coated with anti-thyroglobulin antibody and detected using anti-thyroglobulin antibody linked to alkaline phosphatase. The level of serum thyroglobulin was calculated from a standard curve generated with lyophilized thyroglobulin. Serum thyroglobulin was stable for up to 2 months when stored frozen for the assay. The sensitivity of this assay was 0.2 ng/ml. From 58 patient samples, 50 pre- and post-treatment blood samples at maximum were used for these analyses. Dramatic changes in thyroglobulin levels were observed 29 days after the start of treatment with E7080.

## COc1cc2nccc(Oc3ccc(NC(=O)NC4CC4)c(Cl)c3)c2cc1C(N)=O [E7080, 4-(3-chloro-4-(cyclopropylaminocarbonyl)aminophenoxy)-7-methoxy-6-quinolinecarboxamide]
[1]; KRAS, NRAS (any of gene) mutation patients
  % of tumor shrinkage (Median): −44.5%
[1]; KRAS, NRAS wild type patients
  % of tumor shrinkage (Median): −31.0%
[1]; NRAS mutation patients
  % of tumor shrinkage (Median): −45.5%
[1]; NRAS wild type patients
  % of tumor shrinkage (Median): −35.5%
thyroglobulin; CYCLE2 DAY 1/CYCLE1 DAY 1
  Thyroglobulin level ratio (median), Other group (SD or PD): 0.288
  Thyroglobulin level ratio (median), PR group: 0.195
thyroglobulin; CYCLE3 DAY 1/CYCLE1 DAY 1
  Thyroglobulin level ratio (median), Other group (SD or PD): 0.221
  Thyroglobulin level ratio (median), PR group: 0.109
thyroglobulin; CYCLE4 DAY 1/CYCLE1 DAY 1
  Thyroglobulin level ratio (median), Other group (SD or PD): 0.227
  Thyroglobulin level ratio (median), PR group: 0.079
thyroglobulin; CYCLE5 DAY 1/CYCLE1 DAY 1
  Thyroglobulin level ratio (median), Other group (SD or PD): 0.332
  Thyroglobulin level ratio (median), PR group: 0.106
thyroglobulin; CYCLE6 DAY 1/CYCLE1 DAY 1
  Thyroglobulin level ratio (median), Other group (SD or PD): 0.198
  Thyroglobulin level ratio (median), PR group: 0.078
